Assay results: BigSolDB 2.1

N=C(Nc1ccccc1)Nc1ccccc1
solubility (mole fraction)
Settings | 273.15 K | 275.65 K | 278.15 K | 280.65 K | 283.15 K | 285.65 K
in acetonitrile | 0.00811 | 0.00911 | 0.0103 | 0.011 | 0.012 | 0.0131
in ethanol | 0.0139 | 0.0152 | 0.017 | 0.0191 | 0.0192 | 0.0214
in isobutanol | 0.0128 | 0.0138 | 0.0142 | 0.0166 | 0.0177 | 0.0183
in n-propanol | 0.0152 | 0.0171 | 0.0181 | 0.021 | 0.0215 | 0.0241
in toluene | 0.00134 | 0.00149 | 0.00178 | 0.00189 | 0.00219 | 0.0024
